Laboratory results from patent US12551478B2, “Quinoline derivative having indoleamine-2,3-dioxygenase inhibitory activity” (SHENZHEN CHIPSCREEN BIOSCIENCES CO., LTD., priority 2018, dated 2026).

Key:
[1] = biological target: T1, human indoleamine 2,3-dioxygenase 1 (hIDO1) (Homo sapiens, UniProt P14902); experiment: Inhibitory activity test at cellular level: IFN-γ-induced HeLa cells, kynurenine colour reaction; assay type: cell-based; conditions: 48 hours; for inhibition at 0.1 µM: 50 ng/ml human IFN-γ, 200 μM L-tryptophan, each test compound 100 nM, read-out: hIDO1-cell base inhibition rate (%); for EC50: human IFN-γ, read-out: hIDO1-cell base EC50
T1 construct: up-regulate the expression of endogenous IDO1 under the induction of human IFN-γ; endogenous in cells; host or cells: HeLa cells stimulated with human IFN-γ
Excerpt: The subject of this assay was to comprehensively evaluate different compounds on their enzymatic inhibitory activity in vitro and on cell models against human indoleamine 2,3-dioxygenase 1 (hIDO1).
In the present application, the inventors used Hela cells expressing IDO1 induced by IFN-γ as a model, to test the IDO1 inhibitory activity of the compounds at the cellular level.
HeLa cells are human cervical cancer cell lines, which can up-regulate the expression of endogenous IDO1 under the induction of human IFN-γ. By adding the substrate L-tryptophan to cell culture medium, the enzymatic catalysis product kynurenine in cell supernatant was detected. In this experiment, the cultured Hela cells were used and co-incubated with different concentrations of test compounds under stimulation of human IFN-γ for a specified period of time, and the color reaction method of enzyme product and p-dimethylaminobenzaldehyde was used to detect the effect on IDO enzyme activity of cells treated by the test compounds.
(1) Hela cells were inoculated into 96-well culture plates at an appropriate concentration (about 20,000 cells/well). […] The cells were continuously cultured for 48 hours before detection.
(2) 200 μL of the supernatant in the culture well was pipetted out, added with 40 μL of the pre-prepared 30% (w/v) trichloroacetic acid solution, and reacted at 65° C. for 20 minutes, and then centrifuged at 12000 rpm for 15 minutes.
(3) 100 μL of the supernatant after centrifugation was pipetted out, added into a 96-well flat bottom plate, then added with an equal volume of 2% p-dimethylaminobenzaldehyde in glacial acetic acid and mixed well, and stood at room temperature for 10 minutes.
(4) microplate reader (ELX800NB) was used to detect the absorbance value of each well, and the detection wavelength was 492 nm.
In addition, after the cell enzyme activity inhibition rates of test compounds with different concentration gradients were separately calculated, their cell enzyme activity half inhibition concentrations (EC50) were calculated by using EC50 calculator.
According to the above-mentioned experimental method, the compounds of the present application were subjected to IDO1 enzymatic evaluation at cytological level (the concentration of each test compound was all 100 nM).
According to the above-mentioned experimental method, the compound of the present application was subjected to hIDO1-cell base EC50 detection.

IDO in HeLa cell = biological target: T2, IDO in HeLa cell (Homo sapiens, UniProt P14902); experiment: Inhibition of IDO enzyme activity in HeLa cells by Chidamide in combination with IDO inhibitor; assay type: cell-based; conditions: IFN-γ, 48 hours
T2 construct: 50 ng/ml cytokine human IFN-γ and drugs with different concentrations; endogenous in cells; host or cells: HeLa cells stimulated with human IFN-γ
Description: HeLa cells were digested by trypsin, collected and counted, then inoculated in a 96-well cell culture plate at 2×10^4 cells per well and cultured at 5% CO2 and 37° C. After the cells were inoculated overnight, the medium was replaced with 200 μM L-tryptophan phenol red-free DMEM medium, and 50 ng/ml cytokine human IFN-γ and drugs with different concentrations (administered according to the group and final concentration shown in FIG. 1) were added simultaneously, the vehicle control (DMSO) and cytokine-free and L-tryptophan negative control wells were set at the same time, and triplicate wells were set. After 48 hours of drug treatment, 200 μL of the supernatant from culture well was pipetted out, added with 40 μL of pre-prepared 30% (w/v) trichloroacetic acid solution, reacted at 65° C. for 20 minutes, and then centrifuged at 12000 rpm for 15 minutes. 100 μL of the supernatant was pipetted out and added into a 96-well flat bottom plate, then equal volume of 2% p-dimethylaminobenzaldehyde in glacial acetic acid was added and mixed well, and stood at room temperature for 10 minutes. The absorbance value of each well at wavelength of 492 nm was read with microplate reader (ELX800NB). After subtracting the cell-free medium OD492-BLK as a blank control from the reading of each well, the OD492-T of each dosing well with subtraction of the detection background and the […] of drug-free positive control well were obtained.
The relative enzyme activity inhibition rate against IDO of each dosing well cell was calculated according to the following formula: enzyme activity inhibition rate against IDO=(OD492−T0−OD492−T)/OD492−T0×100%

CT-26 tumor = experiment: Efficacy experiment on Balb/c mouse CT-26 tumor model; assay type: in vivo; conditions: method similar to Example 93

T1 sequence (P14902 whole entry): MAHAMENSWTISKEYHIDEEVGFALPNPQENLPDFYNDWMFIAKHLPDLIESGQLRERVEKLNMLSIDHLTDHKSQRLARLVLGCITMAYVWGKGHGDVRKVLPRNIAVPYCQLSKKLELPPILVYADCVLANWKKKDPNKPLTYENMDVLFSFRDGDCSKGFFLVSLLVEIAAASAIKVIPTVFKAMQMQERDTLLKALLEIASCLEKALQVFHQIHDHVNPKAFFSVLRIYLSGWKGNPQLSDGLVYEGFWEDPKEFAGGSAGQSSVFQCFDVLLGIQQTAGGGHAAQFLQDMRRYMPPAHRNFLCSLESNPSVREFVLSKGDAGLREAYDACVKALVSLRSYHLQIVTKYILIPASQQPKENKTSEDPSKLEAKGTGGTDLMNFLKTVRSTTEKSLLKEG
T2 sequence (P14902 whole entry): as above

SMILES | inhibition at 0.1 µM [1] [%] | further results
O=C(Nc1ccc2c(c1)OCO2)N1CC2(CC(Oc3ccnc4ccc(F)cc34)C2)C1 [Example 20, N-(benzo[d][1,3]dioxol-5-yl)-6-((6-fluoroquinolin-4-yl)oxy)-2-aza-spiro[3.3]heptan-2-carboxamide] | 64 | EC50 [1]: 46 nM; Average inhibition rate (%) against IDO (IDO in HeLa cell; Example 90, Table 4: chidamide and Example 20 alone and in combination, FIG. 2): 16%; Relative tumor inhibition rate (%) (CT-26 tumor; Example 94, Table 8: chidamide and Example 20 alone and in combination): 8.3%
O=C(Nc1ccc(Cl)cc1)N1CC2(CC(Oc3nccc4ccccc34)C2)C1 [Example 36, N-(4-chlorophenyl)-6-(isoquinolin-1-yloxy)-2-aza-spiro[3.3]heptan-2-carboxamide] | 26 | 
CC(C(=O)Nc1ccc(Cl)cc1)N1CC2(CC(Oc3ccnc4ccc(F)cc34)C2)C1 (stereo not drawn) [Example 39, N-(4-chlorophenyl)-2-(6-((6-fluoroquinolin-4-yl)oxo)-2-aza-spiro[3.3]heptan-2-yl)propionamide] | 91 | EC50 [1]: 20 nM
CC(C(=O)NC1CCCCC1)N1CC2(CC(Oc3ccnc4ccc(F)cc34)C2)C1 (stereo not drawn) [Example 40, N-cyclohexyl-2-(6-((6-fluoroquinolin-4-yl)oxo)-2-aza-spiro[3.3]heptan-2-yl)propionamide] | 19 | 
CC(C(=O)Nc1cccnc1)N1CC2(CC(Oc3ccnc4ccc(F)cc34)C2)C1 (stereo not drawn) [Example 41, 2-(6-((6-fluoroquinolin-4-yl)oxo)-2-aza-spiro[3.3]heptan-2-yl)-N-(pyridin-3-yl)propionamide] | 23 | 
CC(C(=O)Nc1ccc(Cl)cc1)N1CC2C(COc3ccnc4ccc(F)cc34)C2C1 (stereo not drawn) [Example 46, N-(4-chlorophenyl)-2-(6-(((6-fluoroquinolin-4-yl)oxo)methyl)-3-aza-bicyclo[3.1.0]hexan-3-yl)propionamide] | 49 | 
CC(C(=O)Nc1ccc(Cl)cc1)N1CC2C(C1)C2Oc1ccnc2ccc(F)cc12 (stereo not drawn) [Example 49, N-(4-chlorophenyl)-2-(6-((6-fluoroquinolin-4-yl)oxo)-3-aza-bicyclo[3.1.0]hexan-3-yl)propionamide] | 99 | EC50 [1]: 5 nM
CC(C(=O)Nc1ccc(Cl)cc1)N1CC2(CC(Nc3ccnc4ccc(F)cc34)C2)C1 (stereo not drawn) [Example 54, N-(4-chlorophenyl)-2-(6-((6-fluoroquinolin-4-yl)amino)-2-aza-spiro[3.3]heptan-2-yl)propionamide] | 69 | 
CC(C(=O)Nc1ccc(Cl)cc1)N1CC2(CC(N(C)c3ccnc4ccc(F)cc34)C2)C1 (stereo not drawn) [Example 59, N-(4-chloro)-2-(6-((6-fluoroquinolin-4-yl)(methyl)amino)-2-aza-spiro[3.3]heptan-2-yl)propionamide] | 85 | EC50 [1]: 25 nM
CC(C(=O)Nc1ccc(Cl)cc1)N1CCC2CN(c3ccnc4ccc(F)cc34)CC2C1 (stereo not drawn) [Example 64, N-(4-chlorophenyl)-2-(2-(6-fluoroquinolin-4-yl)octahydro-5H-pyrrolo[3,4-c]pyridin-5-yl)propionamide] | 96 | 
COc1cccc(NC(=O)C(C)N2CCC3CN(c4ccnc5ccc(F)cc45)CC3C2)c1 (stereo not drawn) [Example 65, 2-(2-(6-fluoroquinolin-4-yl)octahydro-5H-pyrrolo[3,4-c]pyridin-5-yl)-N-(3-methoxyphenyl)propionamide] | 59 | 
COc1ccc(NC(=O)C(C)N2CCC3CN(c4ccnc5ccc(F)cc45)CC3C2)cc1 (stereo not drawn) [Example 66, 2-(2-(6-fluoroquinolin-4-yl)octahydro-5H-pyrrolo[3,4-c]pyridin-5-yl)-N-(4-methoxyphenyl)propionamide] | 90 | 
CC(C(=O)Nc1ccccc1)N1CCC2CN(c3ccnc4ccc(F)cc34)CC2C1 (stereo not drawn) [Example 67, 2-(2-(6-fluoroquinolin-4-yl)octahydro-5H-pyrrolo[3,4-c]pyridin-5-yl)-N-phenyl-propionamide] | 94 | 
CC(C(=O)Nc1ccc(Cl)cc1)N1CC2C(C1)C2Nc1ccnc2ccc(F)cc12 (stereo not drawn) [Example 72, 2-(6-((6-fluoroquinolin-4-yl)amino)-3-aza-bicyclo[3.1.0]hexan-3-yl)-N-(4-chlorophenyl)propionamide] | 88 | EC50 [1]: 8 nM; Average inhibition rate (%) against IDO (IDO in HeLa cell; Example 91, Table 5: chidamide and Example 72 alone and in combination, FIG. 3): 36%; Relative tumor inhibition rate (%) (CT-26 tumor; Example 95, Table 9: chidamide and Example 72 alone and in combination): 7.6%
COc1ccc(NC(=O)C(C)N2CC3C(C2)C3Nc2ccnc3ccc(F)cc23)cc1 (stereo not drawn) [Example 73, 2-(6-((6-fluoroquinolin-4-yl)amino)-3-aza-bicyclo[3.1.0]hexan-3-yl)-N-(4-methoxyphenyl)propionamide] | 83 | 
CC(C(=O)Nc1ccccc1)N1CC2C(C1)C2Nc1ccnc2ccc(F)cc12 (stereo not drawn) [Example 74, 2-(6-((6-fluoroquinolin-4-yl)amino)-3-aza-bicyclo[3.1.0]hexan-3-yl)-N-phenyl-propionamide] | 85 | 
O=C(Nc1ccc(Cl)cc1)C(CO)N1CC2C(C1)C2Nc1ccnc2ccc(F)cc12 (stereo not drawn) [Example 78, N-(4-chlorophenyl)-2-(6-((6-fluoroquinolin-4-yl)amino)-3-aza-bicyclo[3.1.0]hexan-3-yl)-3-hydroxypropionamide] | 42 | 
CC(C(=O)Nc1ccc(Cl)cc1)N1CC2CC(Nc3ccnc4ccc(F)cc34)CC2C1 (stereo not drawn) [Example 83, N-(4-chlorophenyl)-2-(5-((6-fluoroquinolin-4-yl)amino)hexahydro-cyclopenta[c]pyrrol-2(1H)-yl)propionamide] | 45 | 
